Reference: patent publication US7348344B2, “Polysubstituted 1,1-pyridyloxycyclopropanamine compounds” (Les Laboratoires Servier, priority 2005, dated 2008)

Key:
[1] = biological target: T1, type α4β2 central nicotinic receptors (Rattus norvegicus, UniProt P09483+P12390); assay: Displacement of binding of [3H]-cytisine on type α4β2 nicotinic receptors of rat brain; conditions: rat brain membranes
T1 construct: from tissue; host or cells: rat brain membranes
Method: This study, carried out according to the technique described in Molec. Pharmacol., 1990, 39; 9-12, is aimed at determining the affinity of compounds of the present invention for type α4β2 central nicotinic receptors.
Membranes (250 μg/ml) of rat brain are incubated (2 hours, 20° C.) in the presence of a series of concentrations (0.01-10 μM) of each compound of the present invention (diluted starting from a 10 mM stock solution in DMSO) and [^3H]-cytisine (S.A.: 1184 GBq/mmol: 2 nM) in phosphate buffer (NaH2PO4 20 mM, pH 7.4); final volume: 250 μl. The non-specific binding is determined by incubating membranes in the presence of 10 μM of (−)nicotine. The affinity of the compounds of the present invention for type α4β2 central nicotinic receptors is characterised by determination of the Ki.

[2] = system: release of acetylcholine in the prefrontal cortex; assay: In vivo measurement of the release of acetylcholine by intra-cortical microdialysis in the conscious Wistar rat; design: dose or concentration left out as unconfirmed; conditions: one hour after administration
Method: The systemic administration of nicotine and nicotinic agonists causes an increase, in vivo, of acetylcholine in various regions of the brain (Neurochem. Res., 1996, 21, 1181-1186; Eur. J. Pharmacol., 1998, 351, 181-188; Br. J. Pharmacol., 1999, 127, 1486-1494). A microdialysis probe is implanted in the median prefrontal cortex of male Wistar rats. Six or seven days after they have been implanted, the probes are perfused with Ringer's solution (NaCl 147 mM, KCl 2.7 mM, CaCl2 1.2 mM, MgCl2 1 mM, neostigmine 20 nM) at a flow rate of 1 μl/min, the animal being free to move. After 2 hours in the animal quarters, the product under test is administered by the intraperitoneal route. A group of control animals receives the solvent used for the product. The dialysates (30 μl) are then collected every 30 minutes for 4 hours in order to measure the cortical extra-synaptic concentrations of acetylcholine by means of HPLC with amperometric detection. The results are expressed in pg of acetylcholine/dialysate, and inter-group comparisons are carried out by means of analysis of variance using 2 factors (treatment×time), with measurements being repeated over time.

[3] = system: Wistar rat; assay: Social recognition in the Wistar rat; format: in vivo; conditions: 10 mg/kg IP, second encounter after 2 hours
Source text: Initially described in 1982 (J. Comp. Physiol., 1982, 96, 1000-1006), the social recognition test has subsequently been proposed by various authors (Psychopharmacology, 1987, 91, 363-368; Psychopharmacology, 1989, 97, 262-268) for studying the mnemocognitive effects of new compounds. The test is based on the natural expression of the olfactory memory of the rat and its natural tendency to forget and allows evaluation of memorisation, by recognition of a young congeneric animal, by an adult rat. A young rat (21 days), taken at random, is placed for 5 minutes in the cage housing an adult rat. With the aid of a video device, the experimenter observes the social recognition behaviour of the adult rat and measures its overall duration. The young rat is then removed from the adult rat's cage and is placed in its own cage until the second introduction. The adult rat is given the compound under test by the intraperitoneal route and, after 2 hours, is again brought into the presence (5 minutes) of the young rat. The social recognition behaviour is then observed again and its duration measured. The assessment criterion is the difference (T2−T1), expressed in seconds, between the “recognition” times of the 2 encounters.

[4] = system: NMRI mouse; assay: Abdominal contractions induced by phenyl-p-benzoquinone (PBQ) in the NMRI mouse; format: in vivo; conditions: 10 mg/kg IP
Method: Intraperitoneal administration of an alcoholic solution of PBQ causes abdominal cramps in the mouse (Proc. Soc. Exp. Biol., 1957, 95, 729-731). The cramps are characterised by repeated contractions of the abdominal musculature, accompanied by extension of the hind limbs. Most analgesics antagonise these abdominal cramps (Brit. J. Pharmacol. Chem., 1968, 32, 295-310). At t=0 min., the animals are weighed and the compound being studied is administered by the IP route. A group of control animals is given the solvent used for the compound. At t=30 min., an alcoholic solution of PBQ (0.2%) is administered by the IP route in a volume of 0.25 ml/mouse. Immediately after administration of the PBQ, the animals are placed in cylinders of plexiglass (L=19.5 cm; I.D.=5 cm). From t=35 min. to t=45 min., the animals' reaction is observed and the experimenter notes the total number of abdominal cramps per animal. The results are expressed as the percentage inhibition of the number of abdominal cramps measured in the control animals, at the active dose of the compound studied.

T1 sequence (P09483 31-630): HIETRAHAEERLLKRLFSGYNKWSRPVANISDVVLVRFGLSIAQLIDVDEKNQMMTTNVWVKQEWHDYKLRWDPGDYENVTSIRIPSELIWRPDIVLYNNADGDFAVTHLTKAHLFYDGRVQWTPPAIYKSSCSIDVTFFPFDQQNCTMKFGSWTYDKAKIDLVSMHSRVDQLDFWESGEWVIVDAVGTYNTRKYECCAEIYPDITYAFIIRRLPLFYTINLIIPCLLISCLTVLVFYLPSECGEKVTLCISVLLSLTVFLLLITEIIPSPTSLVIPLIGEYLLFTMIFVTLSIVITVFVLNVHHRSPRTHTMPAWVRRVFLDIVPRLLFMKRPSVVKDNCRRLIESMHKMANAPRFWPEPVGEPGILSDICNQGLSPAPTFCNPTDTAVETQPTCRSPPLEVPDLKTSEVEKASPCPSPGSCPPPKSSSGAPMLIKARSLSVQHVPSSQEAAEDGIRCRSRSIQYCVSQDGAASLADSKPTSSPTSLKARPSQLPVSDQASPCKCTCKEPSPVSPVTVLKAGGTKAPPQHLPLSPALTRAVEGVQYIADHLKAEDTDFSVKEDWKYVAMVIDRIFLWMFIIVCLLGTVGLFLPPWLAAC
T1 sequence (P12390 25-500): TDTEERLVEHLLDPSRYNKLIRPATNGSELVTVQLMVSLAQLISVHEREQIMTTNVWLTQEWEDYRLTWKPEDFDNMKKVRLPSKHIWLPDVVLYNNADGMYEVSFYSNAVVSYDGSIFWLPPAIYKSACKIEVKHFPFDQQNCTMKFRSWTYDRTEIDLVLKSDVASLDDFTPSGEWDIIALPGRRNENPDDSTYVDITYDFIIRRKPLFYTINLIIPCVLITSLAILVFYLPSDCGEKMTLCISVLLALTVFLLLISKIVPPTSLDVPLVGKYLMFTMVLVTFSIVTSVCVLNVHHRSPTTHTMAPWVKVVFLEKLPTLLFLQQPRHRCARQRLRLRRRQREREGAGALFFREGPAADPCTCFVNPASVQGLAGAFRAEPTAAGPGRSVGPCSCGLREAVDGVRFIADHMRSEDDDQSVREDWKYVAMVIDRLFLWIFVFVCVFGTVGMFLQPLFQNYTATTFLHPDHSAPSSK

Question: Which melting point does the source give for `C[C@H]1C[C@@]1(N)COc1ccc(Cl)nc1.Cl` (single isomer, unassigned) here?
Answer: 183 to 186 °C

Question: Which melting point does the source give for `C[C@H]1C[C@]1(COc1ccc(Cl)nc1)N(C)C.Cl` (single isomer, unassigned) here?
Answer: 136 to 138 °C

Question: With `C[C@H]1C[C@@]1(N)COc1cccnc1.Cl.Cl` (single isomer, unassigned) as the compound, how does the melting point read?
Answer: < 75 °C

Question: With `CN[C@@]1(COc2ccc(Cl)nc2)C[C@@H]1C.Cl` (single isomer, unassigned) [11] as the compound, how does the melting point read?
Answer: 185 to 190 °C

Question: Which melting point does the source give for `CN[C@@]1(COc2ccc(Cl)nc2)C[C@@H]1C.Cl` (single isomer, unassigned) [12] here?
Answer: 188 to 192 °C

Question: Which melting point does the source give for `CN[C@@]1(COc2cccnc2)C[C@H]1C.Cl.Cl` (single isomer, unassigned) [20] here?
Answer: 69 to 72 °C

Question: Which melting point does the source give for `CN[C@@]1(COc2cccnc2)C[C@H]1C.Cl.Cl` (single isomer, unassigned) [21] here?
Answer: 71 to 74 °C

Question: Which melting point does the source give for `CNC1(COc2cccnc2)CC1(C)C.O=C(O)/C=C/C(=O)O.O=C(O)/C=C/C(=O)O` (single isomer, unassigned) [26] here?
Answer: 124 to 127 °C

Question: With `CN[C@@]1(COc2cccnc2)C[C@@H]1C.Cl.Cl` (single isomer, unassigned) [Example 2, (1S,2S)- or (1R,2R)-(−)-N,2-dimethyl-1-[(3-pyridinyloxy)methyl]cyclopropanamine Dihydrochloride] as the compound, how does the Ki [1] read?
Answer: 69 nM

Question: And the “increase in the release of acetylcholine in the prefrontal cortex” value [2]?
Answer: +86%

Question: What about the melting point of the same compound?
Answer: 174 to 176 °C

Question: And the “difference (T2−T1) between recognition times” value [3]?
Answer: 38 s

Question: Which “reduction of the number of abdominal cramps caused by PBQ” value [4] does the source give for `C[C@H]1C[C@@]1(N)COc1ccc(Cl)nc1.Cl` (single isomer, unassigned) [Example 15, (1S,2S)- or (1R,2R)-(+)-1-{[(6-chloro-3-pyridinyl)oxy]methyl}-2-methylcyclopropanamine Hydrochloride] here?
Answer: −69%

Question: With `CNC1(COc2cccnc2)CC1(C)C.O=C(O)/C=C/C(=O)O.O=C(O)/C=C/C(=O)O` (single isomer, unassigned) [Example 27] as the compound, how does the melting point read?
Answer: 115 to 118 °C
